Measured values published in US10683292B2, “Purine and 3-deazapurine analogues as choline kinase inhibitors” (NERVIANO MEDICAL SCIENCES S.R.L., priority 2016, dated 2020).
Counter-ions that a name gives are not always drawn.

Key:
Δ49N-hChoKα = target: T1, Δ49N-hChoKα (Homo sapiens, UniProt P35790); test: Biochemical kinase inhibition assay (Kinase-Glo Luminescent Kinase Assay) on Δ49N-hChoKα; settings: ATP 5 μM, choline 5 μM, 60 minutes at rt; read-out: IC50 ChoKα
T1 construct: cDNA fragment 362-1534, corresponding to aminoacids 50-457; GST (N, cleaved yes); Prescission Protease recognition site (N, cleaved yes); made in house; host or cells: Escherichia coli BL21pLysS (DE3)
T1 sequence (P35790 50-457, stated change not applied): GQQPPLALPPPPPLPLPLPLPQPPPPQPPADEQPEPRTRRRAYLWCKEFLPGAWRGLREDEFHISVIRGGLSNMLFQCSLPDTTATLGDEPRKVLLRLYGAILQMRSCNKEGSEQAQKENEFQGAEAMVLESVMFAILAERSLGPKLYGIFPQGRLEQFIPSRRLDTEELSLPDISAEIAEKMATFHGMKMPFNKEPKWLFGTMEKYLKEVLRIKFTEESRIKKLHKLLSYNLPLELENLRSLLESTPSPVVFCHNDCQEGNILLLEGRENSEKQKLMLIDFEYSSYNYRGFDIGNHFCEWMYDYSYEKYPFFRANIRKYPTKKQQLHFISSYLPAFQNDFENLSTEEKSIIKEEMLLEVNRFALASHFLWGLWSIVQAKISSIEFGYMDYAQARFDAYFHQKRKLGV
Protocol: (§1) The biochemical activity of compounds against Δ49N-ChoKα and ChoKβ FL were determined using the Kinase-Glo™ Luminescent Kinase Assay (Promega cat. V6711).
(§2) Compounds were 3-fold serially diluted from 10 to 0.0005 μM, then incubated for 60 minutes at rt in the presence of ATP 5 μM, choline (5 μM for ChoKα and 20 μM for ChoKβ) and enzyme in a final volume of 19 μL of kinase buffer (50 mM Hepes pH 7.5, 10 mM MgCl2, 1 mM DTT, 3 μM Na3VO4 and 0.2 mg/mL BSA). The final concentration of DMSO was 1%.
(§3) At the end of the incubation, an amount of 19 μL of KinaseGlo Reagent was added to each well to stop the reaction and after 30 minutes the luminescence signal was measured using ViewLux reader (Perkin Elmer).
(§4) The data per each molecule are analyzed by an internally customized version of the SW package “Assay Explorer” which provides sigmoidal fittings of the ten-dilution curves for IC50 determination using a 4 parameter logistic equation: y=bottom+(top−bottom)/(1+10^((log IC50−x)*slope)) where x is the logarithm of the inhibitor concentration, y is the response; y starts at bottom and goes to top with a sigmoid shape.

hChoKβ FL = target: T2, hChoKβ FL (Homo sapiens, UniProt Q9Y259); test: Biochemical kinase inhibition assay (Kinase-Glo Luminescent Kinase Assay) on hChoKβ FL; settings: ATP 5 μM, choline 20 μM, 60 minutes at rt; read-out: IC50 ChoKβ
T2 construct: hChoKβ full length (FL), corresponding to aminoacids 2-395; GST (N, cleaved yes); Prescission Protease recognition site (N, cleaved yes); made in house; host or cells: Escherichia coli BL21pLysS (DE3)
T2 sequence (Q9Y259 2-395): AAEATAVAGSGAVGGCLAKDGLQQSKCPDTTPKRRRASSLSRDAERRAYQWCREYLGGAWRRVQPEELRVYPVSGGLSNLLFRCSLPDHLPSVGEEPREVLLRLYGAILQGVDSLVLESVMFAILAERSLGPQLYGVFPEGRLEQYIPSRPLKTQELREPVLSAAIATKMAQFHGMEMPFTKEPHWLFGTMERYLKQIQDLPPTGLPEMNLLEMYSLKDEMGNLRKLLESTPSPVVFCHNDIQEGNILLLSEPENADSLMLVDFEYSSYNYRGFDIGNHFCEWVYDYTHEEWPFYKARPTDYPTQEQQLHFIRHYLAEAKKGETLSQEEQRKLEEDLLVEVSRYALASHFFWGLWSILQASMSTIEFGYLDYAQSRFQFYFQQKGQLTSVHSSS
Protocol: as §1, §2, §3, §4

CS(=O)(=O)c1ccc2nc(NC(=O)[C@H]3CC[C@@H](n4cnc5c(N)nc(Cl)nc54)CC3)sc2c1 [cpd 89, cis-4-(6-amino-2-chloro-9H-purin-9-yl)-N-[6-(methylsulfonyl)-1,3-benzothiazol-2-yl]cyclohexanecarboxamide]
IC50 (Δ49N-hChoKα): 64 nM | IC50 (hChoKβ FL): 4160 nM

Nc1nc(Cl)nc2c1ncn2[C@H]1CC[C@@H](C(=O)Nc2nc3ccncc3s2)CC1 [cpd 138, cis-4-(6-amino-2-chloro-9H-purin-9-yl)-N-([1,3]thiazolo[5,4-c]pyridin-2-yl)cyclohexanecarboxamide hydrochloride]
IC50 (Δ49N-hChoKα): 97 nM | IC50 (hChoKβ FL): > 10000 nM

C#Cc1nc(N)c2ncn([C@H]3CC[C@@H](C(=O)Nc4nc5c(s4)CN(C)CC5)CC3)c2n1 [cpd 201, cis-4-(6-amino-2-ethynyl-9H-purin-9-yl)-N-(5-methyl-4,5,6,7-tetrahydro[1,3]thiazolo[5,4-c]pyridin-2-yl)cyclohexanecarboxamide]
IC50 (Δ49N-hChoKα): 19 nM | IC50 (hChoKβ FL): > 10000 nM

CN1CCc2nc(NC(=O)[C@H]3CC[C@@H](n4cnc5c(N)nc(I)nc54)CC3)sc2C1 [cpd 198, cis-4-(6-amino-2-iodo-9H-purin-9-yl)-N-(5-methyl-4,5,6,7-tetrahydro[1,3]thiazolo[5,4-c]pyridin-2-yl)cyclohexanecarboxamide]
IC50 (Δ49N-hChoKα): 33 nM | IC50 (hChoKβ FL): > 10000 nM

COc1cccc(NC(=O)[C@H]2CC[C@@H](n3cnc4c(N)nc(I)nc43)CC2)c1 [cpd 41, cis-4-(6-amino-2-iodo-9H-purin-9-yl)-N-(3-methoxyphenyl)cyclohexanecarboxamide]
IC50 (Δ49N-hChoKα): 441 nM | IC50 (hChoKβ FL): > 10000 nM

Nc1nc(Cl)nc2c1ncn2[C@H]1CC[C@@H](C(=O)Nc2nc3c(s2)CN(C2CC2)CC3)CC1 [cpd 184, cis-4-(6-amino-2-chloro-9H-purin-9-yl)-N-(5-cyclopropyl-4,5,6,7-tetrahydro[1,3]thiazolo[5,4-c]pyridin-2-yl)cyclohexanecarboxamide]
IC50 (hChoKβ FL): 6710 nM

Nc1nc(F)nc2c1ncn2[C@H]1CC[C@@H](C(=O)Nc2nc3c(O)cccc3s2)CC1 [cpd 127, cis-4-(6-amino-2-fluoro-9H-purin-9-yl)-N-(4-hydroxy-1,3-benzothiazol-2-yl)cyclohexanecarboxamide]
IC50 (Δ49N-hChoKα): 45 nM | IC50 (hChoKβ FL): > 10000 nM

CN(C)c1ccc2nc(NC(=O)[C@H]3CC[C@@H](n4cnc5c(N)nc(Cl)nc54)CC3)sc2c1 [cpd 165, cis-4-(6-amino-2-chloro-9H-purin-9-yl)-N-[6-(dimethylamino)-1,3-benzothiazol-2-yl]cyclohexanecarboxamide]
IC50 (Δ49N-hChoKα): 60 nM | IC50 (hChoKβ FL): > 10000 nM

COc1cccc(NC(=O)[C@H]2CC[C@@H](n3cnc4c(N)nc(-c5ccnc(OC)c5)nc43)CC2)c1 [cpd 21, cis-4-[6-amino-2-(2-methoxypyridin-4-yl)-9H-purin-9-yl]-N-(3-methoxyphenyl)cyclohexanecarboxamide]
IC50 (Δ49N-hChoKα): 883 nM

C#Cc1nc(N)c2ncn([C@H]3CC[C@@H](C(=O)Nc4cccc(OC)c4)CC3)c2n1 [cpd 45, cis-4-(6-amino-2-ethynyl-9H-purin-9-yl)-N-(3-methoxyphenyl)cyclohexanecarboxamide]
IC50 (Δ49N-hChoKα): 195 nM | IC50 (hChoKβ FL): 4980 nM

COC(=O)[C@H]1CC[C@@H](n2cnc3c(N)nc(Cl)nc32)CC1 [cpd 88, methyl cis-4-(6-amino-2-chloro-9H-purin-9-yl)cyclohexanecarboxylate]
IC50 (Δ49N-hChoKα): 524 nM | IC50 (hChoKβ FL): > 10000 nM

Nc1nc(Cl)nc2c1ncn2[C@H]1CC[C@@H](C(=O)Nc2nc3cc(F)c(F)cc3s2)CC1 [cpd 168, cis-4-(6-amino-2-chloro-9H-purin-9-yl)-N-(5,6-difluoro-1,3-benzothiazol-2-yl)cyclohexanecarboxamide]
IC50 (Δ49N-hChoKα): 45 nM | IC50 (hChoKβ FL): > 10000 nM

Nc1nc(Cl)nc2c1ncn2[C@H]1CC[C@@H](C(=O)Nc2nc(CC(=O)N3CCC(N4CCCCC4)CC3)cs2)CC1 [cpd 86, cis-4-(6-amino-2-chloro-9H-purin-9-yl)-N-{4-[2-(1,4′-bipiperidin-1′-yl)-2-oxoethyl]-1,3-thiazol-2-yl}cyclohexanecarboxamide]
IC50 (Δ49N-hChoKα): 52 nM | IC50 (hChoKβ FL): > 10000 nM

Cc1csc(NC(=O)[C@H]2CC[C@@H](n3cnc4c(N)nc(-c5cccc(C(N)=O)c5)nc43)CC2)n1 [cpd 96, 3-(6-amino-9-{cis-4-[(4-methyl-1,3-thiazol-2-yl)carbamoyl]cyclohexyl}-9H-purin-2-yl)benzamide]
IC50 (Δ49N-hChoKα): 274 nM | IC50 (hChoKβ FL): > 10000 nM

Nc1nc(F)nc2c1ncn2[C@H]1CC[C@@H](C(=O)Nc2nc3c(s2)CCCC3)CC1 [cpd 206, cis-4-(6-amino-2-fluoro-9H-purin-9-yl)-N-(4,5,6,7-tetrahydro-1,3-benzothiazol-2-yl)cyclohexanecarboxamide]
IC50 (Δ49N-hChoKα): 16 nM | IC50 (hChoKβ FL): > 10000 nM

Nc1nc(C(F)(F)F)nc2c1ncn2[C@H]1CC[C@@H](C(=O)Nc2nc3ccc(F)cc3s2)CC1 [cpd 132, cis-4-[6-amino-2-(trifluoromethyl)-9H-purin-9-yl]-N-(6-fluoro-1,3-benzothiazol-2-yl)cyclohexanecarboxamide]
IC50 (Δ49N-hChoKα): 257 nM | IC50 (hChoKβ FL): > 10000 nM

COc1nc(N)c2ncn([C@H]3CC[C@@H](C(=O)Nc4nc(C)cs4)CC3)c2n1 [cpd 84, cis-4-(6-amino-2-methoxy-9H-purin-9-yl)-N-(4-methyl-1,3-thiazol-2-yl)cyclohexanecarboxamide]
IC50 (Δ49N-hChoKα): 86 nM | IC50 (hChoKβ FL): > 10000 nM

Cc1csc(NC(=O)[C@H]2CC[C@@H](n3cnc4c(N)nc(C(F)(F)F)nc43)CC2)n1 [cpd 129, cis-4-[6-amino-2-(trifluoromethyl)-9H-purin-9-yl]-N-(4-methyl-1,3-thiazol-2-yl)cyclohexanecarboxamide]
IC50 (Δ49N-hChoKα): 416 nM | IC50 (hChoKβ FL): > 10000 nM

Cc1csc(NC(=O)[C@H]2CC[C@@H](n3cnc4c(N)nc(I)nc43)CC2)n1 [cpd 70, cis-4-(6-amino-2-iodo-9H-purin-9-yl)-N-(4-methyl-1,3-thiazol-2-yl)cyclohexanecarboxamide]
IC50 (Δ49N-hChoKα): 34 nM | IC50 (hChoKβ FL): > 10000 nM

Cn1c(NC(=O)[C@H]2CC[C@@H](n3cnc4c(N)nc(Cl)nc43)CC2)nc2ccccc21 [cpd 95, cis-4-(6-amino-2-chloro-9H-purin-9-yl)-N-(1-methyl-1H-benzimidazol-2-yl)cyclohexanecarboxamide]
IC50 (Δ49N-hChoKα): 268 nM | IC50 (hChoKβ FL): 7120 nM

Nc1nc(Cl)nc2c1ncn2[C@H]1CC[C@@H](C(N)=O)CC1 [cpd 53, cis-4-(6-amino-2-chloro-9H-purin-9-yl)cyclohexanecarboxamide]
IC50 (Δ49N-hChoKα): 855 nM | IC50 (hChoKβ FL): > 10000 nM

CN1CCN(Cc2ccc(NC(=O)Cc3ccc(NC(=O)[C@H]4CC[C@@H](n5cnc6c(N)nc(Cl)nc65)CC4)cc3)cc2)CC1 [cpd 36, cis-4-(6-amino-2-chloro-9H-purin-9-yl)-N-{4-[2-({4-[(4-methylpiperazin-1-yl)methyl]phenyl}amino)-2-oxoethyl]phenyl}cyclohexanecarboxamide]
IC50 (Δ49N-hChoKα): 53 nM | IC50 (hChoKβ FL): 1350 nM

CN1CCN(Cc2ccc(NC(=O)Cc3ccc(NC(=O)[C@H]4CC[C@@H](n5cnc6c(N)nc(Cl)nc65)CC4)cc3)cc2C(F)(F)F)CC1 [cpd 35, cis-4-(6-amino-2-chloro-9H-purin-9-yl)-N-{4-[2-({4-[(4-methylpiperazin-1-yl)methyl]-3-(trifluoromethyl)phenyl}amino)-2-oxoethyl]phenyl}cyclohexanecarboxamide]
IC50 (Δ49N-hChoKα): 13 nM | IC50 (hChoKβ FL): 430 nM

Nc1nc(Cl)nc2c1ncn2[C@H]1CC[C@@H](C(=O)Nc2nc3ccc(Br)cc3s2)CC1 [cpd 175, cis-4-(6-amino-2-chloro-9H-purin-9-yl)-N-(6-bromo-1,3-benzothiazol-2-yl)cyclohexanecarboxamide]
IC50 (Δ49N-hChoKα): 49 nM | IC50 (hChoKβ FL): > 10000 nM

CC1(C)Cc2nc(NC(=O)[C@H]3CC[C@@H](n4cnc5c(N)nc(F)nc54)CC3)sc2C(C)(C)N1 [cpd 190, cis-4-(6-amino-2-fluoro-9H-purin-9-yl)-N-(4,4,6,6-tetramethyl-4,5,6,7-tetrahydro[1,3]thiazolo[5,4-c]pyridin-2-yl)cyclohexanecarboxamide]
IC50 (hChoKβ FL): > 10000 nM

COc1cccc(NC(=O)[C@H]2CC[C@@H](n3cnc4c(N)nc(-c5ccnc(F)c5)nc43)CC2)c1 [cpd 15, cis-4-[6-amino-2-(2-fluoropyridin-4-yl)-9H-purin-9-yl]-N-(3-methoxyphenyl)cyclohexanecarboxamide]
IC50 (Δ49N-hChoKα): 419 nM

COc1cccc(NC(=O)[C@H]2CC[C@@H](n3cnc4c(N)nc(-c5ccncc5)nc43)CC2)c1 [cpd 9, cis-4-[6-amino-2-(pyridin-4-yl)-9H-purin-9-yl]-N-(3-methoxyphenyl)cyclohexanecarboxamide]
IC50 (hChoKβ FL): > 10000 nM

COc1cccc2sc(NC(=O)[C@H]3CC[C@@H](n4cnc5c(N)nc(Cl)nc54)CC3)nc12 [cpd 91, cis-4-(6-amino-2-chloro-9H-purin-9-yl)-N-(4-methoxy-1,3-benzothiazol-2-yl)cyclohexanecarboxamide]
IC50 (hChoKβ FL): 7380 nM

NC(=O)Cc1ccc2nc(NC(=O)[C@H]3CC[C@@H](n4cnc5c(N)nc(Cl)nc54)CC3)sc2c1 [cpd 177, cis-4-(6-amino-2-chloro-9H-purin-9-yl)-N-[6-(2-amino-2-oxoethyl)-1,3-benzothiazol-2-yl]cyclohexanecarboxamide]
IC50 (hChoKβ FL): 3810 nM

COc1cccc(NC(=O)[C@H]2CC[C@@H](n3cnc4c(N)nc(-c5ccc(F)nc5)nc43)CC2)c1 [cpd 19, cis-4-[6-amino-2-(6-fluoropyridin-3-yl)-9H-purin-9-yl]-N-(3-methoxyphenyl)cyclohexanecarboxamide]
IC50 (Δ49N-hChoKα): 795 nM

COc1ccc2nc(NC(=O)[C@H]3CC[C@@H](n4cnc5c(N)nc(Cl)nc54)CC3)sc2c1 [cpd 92, cis-4-(6-amino-2-chloro-9H-purin-9-yl)-N-(6-methoxy-1,3-benzothiazol-2-yl)cyclohexanecarboxamide]
IC50 (hChoKβ FL): 5030 nM
